Data from patent publication US5411983A, “Certain hyrdoxy-phosphinyl-oxy-phenylmethyl-imidazolium hydroxide inner salts as PAF antagonists” (American Cyanamid Company, priority 1993, dated 1995).
Where a name gives a salt, the structure may show the parent alone.

Legend:
[1] = system: PAF induced vascular permeability change in mouse skin; test: Inhibition of PAF induced vascular permeability change in mouse skin; format: in vivo, mouse (Hilltop ICR); conditions: ip, 0.5 h, test compound i.p., PAF i.d., read-out: Inhibition of Vascular Permeability Lesion (ED50 mg/kg)
Procedure: Inhibition of PAF Induced Vascular Permeability Change in Mouse Skin
The rationale for this test is similar to the coinjection test in guinea pigs; however, the test compound was given intraperitoneally rather than coinjected.
Test solutions were prepared as follows: An 80 μg portion of PAF was dissolved in 40 ml of saline to yield a concentration of 2000 ng/ml. A 10 mg portion of histamine diphosphate was dissolved in 100 ml of saline to yield a concentration 100 μg/ml. Test compounds were dissolved in saline and given intraperitoneally (20 mg/kg) 1/2 hour before intradermal challenge with PAF or histamine.
The animals used were Hilltop ICR mice, shaved on their flanks one day before use. The mice were randomly assigned to treated and control groups and were given test compound or saline 1/2 hour before challenge. Each mouse was injected via a tail vein with 0.25 ml of 0.05% Evans' blue dye immediately before the PAF or histamine intradermal injections were made (0.05 ml each), one per side.
Thirty minutes later the animals were killed and the lesions areas measured as described above. Lesion areas in treated animals were expressed as a percent of the control lesions and an ED50 (mg/kg) was calculated from an arcsine area vs. log dose transform.

PAF induced lethality = PAF induced lethality in the mouse; format: in vivo, mouse (ICR); conditions: ip, 1 h, mice, test compound i.p. 1/2 hour before PAF i.v., dose that protects 1/2 the animals, read-out: PAF induced Lethality PD50 (mg/kg I.P., 1/2 hour)
Procedure: PAF Induced Lethality in the Mouse
Test compounds were evaluated for their ability to prevent death induced by an intravenous injection of a lethal dose of PAF.
ICR mice were given test compounds intraperitoneally as described under Inhibition of PAF Induced Vascular Permeability Change in Mouse Skin, 1/2 hour before an intravenous dose of 100 μg/kg PAF in saline. One hour later the number of dead mice were recorded. Protection was expressed as percent survivors in treated group/percent survivors in control group.

[2] = system: PAF induced vascular permeability change in guinea pig skin
Text: Platelet Activating Factor (PAF) given intradermally, increases capillary permeability, and plasma proteins (e.g albumin) leak from the vascular space into the interstitial fluids of the skin. If the albumin has been previously stained with Evans' blue dye, the lesion area can be visualized as a blue spot in the .skin. A specific PAF antagonist inhibits the development of increased capillary permeability caused by PAF and reduces the leakage of proteins into the skin. Test compounds were evaluated for non-specific effects by monitoring their ability to inhibit or reduce a histamine induced increase in capillary permeability.
Test Solutions were prepared as follows: Evans' Blue Dye (Sigma E2129) was dissolved in saline to yield a 0.1% w/v solution. A 2 mg/ml stock chloroform solution of PAF (1-phosphotidyl, acetyl-O-alkyl; Sigma P9525) was diluted in saline to give final concentrations of 500 and 250 ng/ml. Saline dilutions were made fresh for each test. Histamine diphosphate solutions (Sigma H7375) were prepared by dissolving 10 mg in 100 ml of saline and diluting to 20 μg/ml with saline. Test compounds were dissolved in ethanol at 10 mg/ml and stored at -70° C. Injection mixtures were made by placing 10 μl of test compound solution into 1.0 ml of either the PAF solutions or the histamine solution.
The animals used were Hartley strain guinea pigs weighing 250-350 g, maintained with food and water ad libitum. The animals were shaved on their back and hind feet one day before use.
Each guinea pig was given an intravenous injection of 2 ml of Evans' blue dye solution into a foot vein. Immediately after, a series of six intradermal injections of 0.1 ml each were given, three on each side of the animal. They were: PAF 50 ng (0.1 ml of a 500 ng/ml solution); PAF 25 ng; and histamine diphosphate 2 μg. The left side injections contain 10 μg of test compound while the right side contain an equivalent amount of the ethanol vehicle to serve as a control.
Thirty minutes later the animals were killed by cervical dislocation and the skin reflected from the back. The lesion areas were approximated as the product of the largest diameter and normal diameter both in mm.

PAF receptor [3] = biological target: T1, PAF receptor (Oryctolagus cuniculus, UniProt G1TEI7); test: Inhibition of PAF induced platelet aggregation in washed rabbit platelets; format: cell-based; set-up: In some experiments, washed platelets were used instead of PRP; endogenous in cells; host or cells: washed rabbit platelets; conditions: for Ki: calculated from IC50, [PAF] and EC50; for IC50: challenge concentration of PAF 5E9M [sic]
Procedure: (§1) Platelet activating factor (PAF) compounds were evaluated as PAF receptor antagonists in vitro by measuring inhibition of PAF induced platelet aggregation. Platelet aggregation was measured by a modification of the method of A. Wissner, et. al., J. Med. Chem., 27, 1174, 1984.
(§2) Approximately 120-240 ml of blood were collected by cardiac puncture from unanesthetized male New Zealand White rabbits (Whaley's Summit View Farms, Belvedere, N.J.) with the use of 3.2% sodium citrate anticoagulant (1 part of citrate/10 parts of blood). All syringes and pipets were plastic. The blood was gently mixed and immediately centrifuged at 800 rpm for 10 minutes at room temperature to recover the platelet rich plasma (PRP). Platelet poor plasma (PPP) was prepared by centrifuging PRP at 2800 rpm for 10 minutes at room temperature.
(§3) Dilutions (1:3000) Of PRP in Isoton diluent were made and platelet counts were determined on a Coulter Thrombocounter which was standardized with platelet reference standards (Interscience Platelet Control, Portland, Oreg.). PRP platelet counts were adjusted to 500,000 platelets/μl by the addition of PPP.
(§4) L-PAF was obtained from Calbiochem. A stock solution of 1-2 E-3M was prepared in 10% ethanol in water and serial working dilutions were made using phosphate buffered saline (PBS). 1-2 E-3M stock solutions of test compounds were prepared in 100% methanol and serially diluted in PBS. All solutions were made up in plastic tubes, stored on ice and protected from heat and light. Solutions were prepared fresh or frozen at -20° C. and used within 48 hours.
(§5) Incubation mixtures consisted of 400 μl PRP, 50 μl of PBS diluent or test compound and 50 μl of PAF agonist. More specifically, 400 μl of PRP was stabilized in a cuvette for 1-2 minutes at 37° C. in the aggregometer to achieve a stable baseline, then 50 μl of PBS or test compound, was added and incubated for 5 minutes before addition of the challenge concentration of PAF ([…], as determined from the dose response curve for PAF for that experiment). Aggregation was monitored for 5 minutes. Samples containing test compound or diluent were run simultaneously for comparison. Test compounds were initially evaluated at a screening concentration of 1E-5M. Those producing ≥ 50% inhibition of the magnitude of aggregation were then reevaluated in a dose response fashion (final concentrations 1E-7M to 5E-5M) and IC50 values were determined. Ki values were also calculated in some cases from [formula] where Ki =inhibitory constant
(§6) IC50 =molar concentration of test compound which gives 50% inhibition
(§7) [PAF]=molar concentration of PAF used as challenges
(§8) EC50 =molar concentration of PAF which gives 50% of maximal aggregation.
(§9) The recording equipment consisted of single or dual channel Chronolog aggregometers connected to dual channel 10 MV full scale deflection Omniscribe chart recorders (Houston Instruments). […] The bead suspension was used to set the 0% light transmission mark and clear water was used to set the 100% light transmission mark. These limits defined a full scale deflection. The aggregation traces were analyzed by a digitizing method (C. Kohler and B. Zoltan, J. Pharm. Methods, 12, 113, 1984) with x, y coordinate data stored in a computer file. A suitable program computed parameters of interest such as the magnitude of aggregation.
In some experiments, washed platelets were used instead of PRP. Washed platelet suspensions were prepared as follows. PRP was centrifuged at 2800 rpm for 10 minutes to obtain PPP and a platelet pellet. The pellet was gently suspended and washed in calcium free, albumin free Tyrode's buffer, pH 6.3. The suspension was recentrifuged and the washed pellet was resuspended in normal Tyrodes', buffer (with calcium, but albumin free), pH 7.4. Platelet counts were adjusted to 500,00 platelets/μl.

PAF receptor [4] = biological target: T1, PAF receptor; test: Inhibition of PAF induced platelet aggregation in rabbit platelet rich plasma (PRP); format: cell-based, rabbit (male New Zealand White); set-up: immediately centrifuged at 800 rpm for 10 minutes at room temperature to recover the platelet rich plasma (PRP); endogenous in cells; host or cells: rabbit platelets in platelet rich plasma (male New Zealand White rabbits); conditions: for IC50: rabbit platelet rich plasma
Procedure: as §1, §2, §3, §4, §5, §6, §7, §8, §9

[5] = IC50 (M) PRP, inhibition of PAF-induced platelet aggregation, PAF challenge 1E-6M
[6] = IC50 (M) PRP, inhibition of PAF-induced platelet aggregation, PAF challenge 1E-7M
[7] = IC50 (M) PRP, inhibition of PAF-induced platelet aggregation, PAF challenge 5E-8M
[8] = PAF challenge 5E-8M, read-out: IC50 (M) PRP, inhibition of PAF-induced platelet aggregation

T1 sequence (G1TEI7 1-342): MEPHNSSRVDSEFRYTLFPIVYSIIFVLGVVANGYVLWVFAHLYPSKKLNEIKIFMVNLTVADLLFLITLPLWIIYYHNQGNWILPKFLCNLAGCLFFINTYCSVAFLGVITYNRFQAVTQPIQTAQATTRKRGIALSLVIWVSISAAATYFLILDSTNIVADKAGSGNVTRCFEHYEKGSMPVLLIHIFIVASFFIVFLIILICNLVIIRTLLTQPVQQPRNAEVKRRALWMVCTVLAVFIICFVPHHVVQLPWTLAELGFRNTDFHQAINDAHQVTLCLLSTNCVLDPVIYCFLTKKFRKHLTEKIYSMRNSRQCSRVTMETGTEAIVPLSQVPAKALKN

IC50 (PAF receptor [4]; [8])	SMILES	ED50 [1]	ED50 (PAF induced lethality)	Inhibition of Vascular Permeability Lesion (% of Control) [2]	Ki (PAF receptor [3])	IC50 (PAF receptor [3])	Ki (PAF receptor [4])	IC50 (PAF receptor [4]; [5])	IC50 (PAF receptor [4]; [6])	IC50 (PAF receptor [4]; [7])
	CCCCCCCCCCCCCCc1cccc(OCC(COP(=O)([O-])Oc2cccc(C[n+]3ccsc3)c2)OC)c1 (stereo not drawn) [[[3-[[3-[[Hydroxy[2-methoxy-3-(3-tetradecylphenoxy)propoxy]phosphinyl]oxy]phenyl]methyl]thiazolium, hydroxide, inner salt]	5.3 mg/kg	< 1.25 mg/kg	3.8 % of Control	1.4 nM	9.5 nM	210 nM	4e-06 M	9.5e-07 M	8.1e-07 M
3.4e-06 M	CCCCCCCCCCCCCCCCOCC(COCc1cccc(Cn2cc[n+](C)c2)c1)OC (stereo not drawn) [1-[[3-[[3-(Hexadecyloxy)-2-methoxypropoxy]methyl]phenyl]methyl]-3-methyl-1H-imidazolium, iodide]					1500 nM				
	CCCCCCCCCCCCCCCCCCNC(=O)OCC(COP(=O)([O-])Oc1ccccc1C[n+]1ccsc1)OC (stereo not drawn) [3-[[2-[(1-Hydroxy-4-methoxy-7-oxo-2,6-dioxa-8-aza-1-phosphahexacosyl)oxy]phenyl]methyl]thiazolium, hydroxide, inner salt, P-oxide]	5 mg/kg	< 2.5 mg/kg	25 % of Control	7.2 nM	52 nM	310 nM	2.5e-05 M	1.4e-06 M	5.6e-07 M
	CCCCCCCCCCCCCCCCCCNC(=O)OCC(COP(=O)([O-])Oc1cccc(C[n+]2ccsc2)c1)OC (stereo not drawn) [3-[[3-[(1-Hydroxy-4-methoxy-7-oxo-2,6-dioxa-8-aza-1-phosphahexacosyl)oxy]phenyl]methyl]thiazolium, hydroxide, inner salt P-oxide]	6.2 mg/kg		61.8 % of Control						
	CCCCCCCCCCCCCCCCOCC(COP(=O)([O-])Oc1cccc(C[n+]2ccsc2)c1)OC (stereo not drawn) [3-[[3-[[[3-(Hexadecyloxy)-2-methoxypropoxy]hydroxyphosphinyl]oxy]phenyl]methyl]thiazolium, hydroxide, inner salt]	5.6 mg/kg	< 1.25 mg/kg	25 % of Control	8 nM	17 nM	490 nM	4.7e-05 M	1e-06 M	9.9e-07 M
	CCCCCCCCCCCCOc1cccc(OCC(COP(=O)([O-])Oc2cccc(C[n+]3csc(C)c3)c2)OC)c1C (stereo not drawn) [3-[[3-[[[3-[3-(Dodecyloxy]-2-methylphenoxy]-2-methoxypropoxy]hydroxyphosphinyl]oxy]phenyl]methyl]-5-methylthiazolium, hydroxide, inner salt]							3e-05 M	2e-06 M	9.3e-07 M
5.8e-05 M	CCCCCCCCCCCCCCCCOCC(COCc1cccc(Cn2ccnc2)c1)OC (stereo not drawn) [1-[[3-[[3-(Hexdecyloxy)-2-methoxypropoxy]methyl]phenyl]methyl]-1H-imidazole]									
	CCCCCCCCCCCCOc1cccc(OCC(COP(=O)([O-])Oc2cccc(C[n+]3ccsc3)c2)OC)c1C (stereo not drawn) [3-[[3-[[[3-[3-(Dodecyloxy)-2-methylphenoxy]-2-methoxypropoxy]hydroxyphosphinyl]oxy]phenyl]methyl]thiazolium, hydroxide, inner salt]	8.2 mg/kg	< 1.25 mg/kg	20.4 % of Control			510 nM	2.4e-05 M	1.9e-06 M	2.3e-06 M
	C=C(C)COC(COCCCCCCCCCCCCCCCC)COP(=O)([O-])Oc1cccc(C[n+]2ccsc2)c1 (stereo not drawn) [3-[[3-[[[3-(Hexadecyloxy)-2-[(2-methyl-2-propenyl)oxy]propoxy]hydroxyphosphinyl]oxy]phenyl]methyl]thiazolium, hydroxide, inner salt]							3.9e-05 M	2.6e-06 M	2.1e-06 M
	COC(CCCOCc1ccccc1)COP(=O)([O-])Oc1cccc(C[n+]2ccsc2)c1 (stereo not drawn) [3-[[3-[[Hydroxy[[5-(phenylmethoxy)-2-methoxypentyl]oxy]phosphinyl]oxy]-phenyl]methyl]thiazolium, hydroxide, inner salt]									0.0001 M
	CCCCCCCCCCCCCCCCCCOP(=O)([O-])Oc1cccc(C[n+]2ccsc2)c1 [3-[[3-[[Hydroxy(octadecyloxy)phosphinyl]oxy]phenyl]methyl]thiazolium, hydrozide, inner salt]									2.2e-05 M
	CCCCCCCCCCCCCCc1cccc(OCC(COP(=O)([O-])Oc2cccc(C[n+]3ccccc3)c2)OC)c1 (stereo not drawn) [1-[[3-[[Hydroxy[2-methoxy-3-(3-tetradecylphenoxy)propoxy]phosphinyl]oxy]phenyl]methyl]pyridinium, hydroxide, inner salt]							5.3e-05 M	5.4e-06 M	4.1e-06 M
	COC(COc1ccc(OCc2ccccc2)cc1)COP(=O)([O-])Oc1cccc(C[n+]2ccsc2)c1 (stereo not drawn) [3-[[3-[[Hydroxy-2-methoxy-3-[4-(phenylmethoxy)phenoxy]propoxy]phosphinyl]oxy]phenyl]methyl]thiazolium, hydroxide, inner salt]	20 mg/kg	< 25 mg/kg	67 % of Control						3.3e-05 M
